Laboratory results as given in patent US12427196B2, “Macromolecular prodrugs for light-emitting diodes and uses thereof” (Children's Medical Center Corporation, priority 2020, dated 2025).

Key:
[1] = test system: rat footpad; test: Phototriggered local anesthesia (nerve block) after rat footpad injection, Touch Test neurobehavioral testing; format: in vivo; conditions: irradiance 0 W/cm^2, irradiation duration 0 min (no irradiation)
Procedure: The effectiveness of light-triggered anesthesia using P407-CM-T was assessed in vivo after footpad injection in the rat (Table 1);^17, 28-32 this model was selected because it was anticipated that 400 nm light would not penetrate deeply into tissue.^33
A hundred microliters of 20 wt % P407-CM-T were injected into the plantar aspect of the rat hind paw. […] Irradiation of the site of administration immediately after injection with a 400 nm LED at 200 mW/cm^2 for two minutes caused local anesthesia lasting 19.5±4.5 min (FIGS. 5A-5B). Local anesthesia was prolonged to 36.5±8.9 min (FIG. 5B) by increasing the irradiance to 300 mW/cm^2 also for 2 minutes (p<0.05 compared to 200 mW/cm^2). Extending the irradiation time to five minutes at 300 mW/cm^2 further extended local anesthesia to 66.7±24 min (p<0.05 compared to 300 mW/cm^2 for 2 min, FIG. 5B).
It would be important for a light-triggerable local anesthetic system to be triggered repeatedly, so as to be able to treat pain over an extended period. To assess the ability of P407-CM-T to provide repeated on-demand local anesthesia, animals were injected in the footpad with 0.1 mL of 20 wt % P407-CM-T (FIG. 4D). […] The animal was then irradiated at the site of injection with 400 nm light at 300 mW/cm^2 for 2 min. […]

[2] = test system: C2C12 cells; test: Cytotoxicity, MTS cell proliferation assay; format: cell-based; conditions: 24 h
Procedure: (§1) Before testing the material in vivo, test materials were evaluated in vitro with C2C12 and PC12 cells to assess cytotoxicity to muscle and nerve cells respectively. Different compounds were directly added into the cell culture media (1 mg/mL, 0.33 mg/mL and 0.11 mg/mL) and incubated in the media bathing the cells (i.e. in direct contact with them) in conventional cell culture wells. After 24 h, cell viabilities were evaluated with the MTS assay, and their survival expressed as percentages of results in untreated cells. […] Due to the high molecular weight of the polymer-containing samples, their molar concentrations were perforce lower than that of the small molecule tetracaine. It would not be practical to culture cells in media containing the polymer concentration to be used in vivo (20 wt %), which would be very viscous. Therefore, test materials were placed in Transwell® inserts such that they were in continuity with the cell culture media.
(§2) Cytotoxicity analysis. For the “direct contact” experiments, the cells were incubated in 48-well plates with concentration of formulations of 1, 0.33, 0.11 mg/mL in the media for all samples. For the “indirect contact” experiments, the cells were incubated in 24-well plates with a transwell in each well, in which 50 μL of tetracaine (0.5% wt %) or P407 (20% wt %) or P407-CM-T (20% wt %) was applied. After 24 h, the cell viabilities were evaluated with MTS assay as percentages of the control.

[3] = test system: PC12 cells; test: Cytotoxicity, MTS cell proliferation assay; format: cell-based; conditions: 24 h
Procedure: as §1, §2

For CCCCNc1ccc(C(=O)OCCN(C)C)cc1 [Tetracaine, tetracaine], the “Duration of Block” value [1] was 28.6 ± 7.1 min, the “Cell viability (MTS)” value ([2]; C2C12, Transwell inserts, tetracaine 0.5% wt %, P407 20% wt %, P407-CM-T 20% wt %) was “greatly reduced cell survival” and the “Cytotoxicity (cell survival, MTS)” value ([2]; C2C12, direct contact, 1, 0.33 and 0.11 mg/mL in media) was “high cytotoxicity”. For the same compound, the “Cell viability (MTS)” value ([3]; PC12, Transwell inserts, tetracaine 0.5% wt %, P407 20% wt %, P407-CM-T 20% wt %) was “greatly reduced cell survival” and the “Cytotoxicity (cell survival, MTS)” value ([3]; PC12, direct contact, 1, 0.33 and 0.11 mg/mL in media) was “high cytotoxicity”.
